In PubChem BioAssay (NCI):
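Cells were grown in 96-well plates and exposed to each compound for 48 hours at five concentrations; endpoints were interpolated linearly between bracketing concentrations, or set to the highest concentration if not reached. Definition used: TGI = concentration required for complete inhibition of growth.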

Assays:
Assay in all cases: NCI anticancer screen, dose series, 48 h
786-0 renal = system: 786-0 renal
A498 renal = system: A498 renal
A549 NSCLC = system: A549 NSCLC
ACHN renal = system: ACHN renal
BT-549 breast = system: BT-549 breast
CAKI-1 renal = system: CAKI-1 renal
CCRF-CEM leukemia = system: CCRF-CEM leukemia
COLO 205 colon = system: COLO 205 colon
DU-145 prostate = system: DU-145 prostate
EKVX NSCLC = system: EKVX NSCLC
HCC-2998 colon = system: HCC-2998 colon
HCT-116 colon = system: HCT-116 colon
HCT-15 colon = system: HCT-15 colon
HL-60(TB) leukemia = system: HL-60(TB) leukemia
HOP-62 NSCLC = system: HOP-62 NSCLC
HOP-92 NSCLC = system: HOP-92 NSCLC
HS 578T breast = system: HS 578T breast
HT29 colon = system: HT29 colon
IGROV1 ovarian = system: IGROV1 ovarian
K-562 leukemia = system: K-562 leukemia
KM12 colon = system: KM12 colon
LOX IMVI melanoma = system: LOX IMVI melanoma
M14 melanoma = system: M14 melanoma
MALME-3M melanoma = system: MALME-3M melanoma
MCF7 breast = system: MCF7 breast
MDA-MB-231 breast = system: MDA-MB-231 breast
MDA-MB-435 = system: MDA-MB-435
MDA-N = system: MDA-N
MOLT-4 leukemia = system: MOLT-4 leukemia
NCI-H226 lung = system: NCI-H226 lung
NCI-H23 lung = system: NCI-H23 lung
NCI-H460 lung = system: NCI-H460 lung
NCI-H522 lung = system: NCI-H522 lung
NCI/ADR-RES ovarian = system: NCI/ADR-RES ovarian
OVCAR-3 ovarian = system: OVCAR-3 ovarian
OVCAR-4 ovarian = system: OVCAR-4 ovarian
OVCAR-5 ovarian = system: OVCAR-5 ovarian
OVCAR-8 ovarian = system: OVCAR-8 ovarian
PC-3 prostate = system: PC-3 prostate
RXF 393 renal = system: RXF 393 renal
SF-268 CNS = system: SF-268 CNS
SF-295 CNS = system: SF-295 CNS
SF-539 CNS = system: SF-539 CNS
SK-MEL-2 melanoma = system: SK-MEL-2 melanoma
SK-MEL-28 melanoma = system: SK-MEL-28 melanoma
SK-MEL-5 melanoma = system: SK-MEL-5 melanoma
SK-OV-3 ovarian = system: SK-OV-3 ovarian
SN12C renal = system: SN12C renal
SNB-19 CNS = system: SNB-19 CNS
SNB-75 CNS = system: SNB-75 CNS
SR leukemia = system: SR leukemia
SW-620 colon = system: SW-620 colon
T-47D breast = system: T-47D breast
TK-10 renal = system: TK-10 renal
U251 CNS = system: U251 CNS
UACC-257 melanoma = system: UACC-257 melanoma
UACC-62 melanoma = system: UACC-62 melanoma
UO-31 renal = system: UO-31 renal
RPMI-8226 leukemia = system: RPMI-8226 leukemia

With `COc1cc(C2c3cc4c(cc3OC3(OC)COC(=O)C23)OCO4)cc(OC)c1OC` (stereo not given) the TGI (786-0 renal) was > 27.1 µM, the TGI (A498 renal) was 2.38 µM and the TGI (A549 NSCLC) was > 37.8 µM. For the same compound, the TGI (ACHN renal) was > 100 µM, the TGI (BT-549 breast) was > 100 µM and the TGI (CAKI-1 renal) was > 90.2 µM. The TGI (CCRF-CEM leukemia) was 3.05 µM, the TGI (COLO 205 colon) was 0.64 µM and the TGI (DU-145 prostate) was 6.51 µM. The TGI (EKVX NSCLC) was > 72.1 µM, the TGI (HCC-2998 colon) was 14.9 µM and the TGI (HCT-116 colon) was 7 µM. For the same compound, the TGI (HCT-15 colon) was 20.1 µM, the TGI (HL-60(TB) leukemia) was 13.6 µM and the TGI (HOP-62 NSCLC) was > 100 µM. The TGI (HOP-92 NSCLC) was > 100 µM, the TGI (HS 578T breast) was > 100 µM and the TGI (HT29 colon) was 0.804 µM. For the same compound, the TGI (IGROV1 ovarian) was > 100 µM, the TGI (K-562 leukemia) was 11 µM and the TGI (KM12 colon) was 7.68 µM. The TGI (LOX IMVI melanoma) was 23.4 µM, the TGI (M14 melanoma) was 8.43 µM and the TGI (MALME-3M melanoma) was > 100 µM. For the same compound, the TGI (MCF7 breast) was > 56.8 µM, the TGI (MDA-MB-231 breast) was 2.08 µM and the TGI (MDA-MB-435) was 0.68 µM. The TGI (MDA-N) was 0.319 µM, the TGI (MOLT-4 leukemia) was 12.2 µM and the TGI (NCI-H226 lung) was 8.16 µM. The TGI (NCI-H23 lung) was > 100 µM, the TGI (NCI-H460 lung) was > 67.9 µM and the TGI (NCI-H522 lung) was 3.19 µM. For the same compound, the TGI (NCI/ADR-RES ovarian) was 4.39 µM, the TGI (OVCAR-3 ovarian) was 2.45 µM and the TGI (OVCAR-4 ovarian) was > 100 µM. For the same compound, the TGI (OVCAR-5 ovarian) was > 89.2 µM, the TGI (OVCAR-8 ovarian) was 6.12 µM and the TGI (PC-3 prostate) was > 44.9 µM. The TGI (RXF 393 renal) was 11.7 µM, the TGI (SF-268 CNS) was > 85.6 µM and the TGI (SF-295 CNS) was 0.479 µM. The TGI (SF-539 CNS) was 0.697 µM, the TGI (SK-MEL-2 melanoma) was > 40.9 µM and the TGI (SK-MEL-28 melanoma) was > 100 µM. For the same compound, the TGI (SK-MEL-5 melanoma) was 7.46 µM, the TGI (SK-OV-3 ovarian) was > 100 µM and the TGI (SN12C renal) was > 80.5 µM. For the same compound, the TGI (SNB-19 CNS) was > 26.6 µM, the TGI (SNB-75 CNS) was > 100 µM and the TGI (SR leukemia) was 4.8 µM. For the same compound, the TGI (SW-620 colon) was > 100 µM, the TGI (T-47D breast) was > 100 µM and the TGI (TK-10 renal) was > 100 µM. The TGI (U251 CNS) was > 66.3 µM, the TGI (UACC-257 melanoma) was > 100 µM and the TGI (UACC-62 melanoma) was > 20.5 µM. For the same compound, the TGI (UO-31 renal) was > 100 µM.
With `Cc1nc2c(Cl)cc(Cl)cc2c(Cl)c1CCCl` the TGI (786-0 renal) was > 100 µM, the TGI (A498 renal) was > 100 µM and the TGI (A549 NSCLC) was > 100 µM. For the same compound, the TGI (ACHN renal) was > 100 µM, the TGI (BT-549 breast) was > 100 µM and the TGI (CAKI-1 renal) was > 100 µM. For the same compound, the TGI (CCRF-CEM leukemia) was > 100 µM, the TGI (COLO 205 colon) was > 100 µM and the TGI (DU-145 prostate) was > 100 µM. The TGI (EKVX NSCLC) was > 100 µM, the TGI (HCC-2998 colon) was > 100 µM and the TGI (HCT-116 colon) was > 100 µM. For the same compound, the TGI (HCT-15 colon) was > 100 µM, the TGI (HL-60(TB) leukemia) was > 100 µM and the TGI (HOP-62 NSCLC) was > 100 µM. The TGI (HS 578T breast) was > 100 µM, the TGI (HT29 colon) was > 100 µM and the TGI (IGROV1 ovarian) was > 100 µM. The TGI (K-562 leukemia) was > 100 µM, the TGI (KM12 colon) was > 100 µM and the TGI (LOX IMVI melanoma) was > 100 µM. For the same compound, the TGI (M14 melanoma) was > 100 µM, the TGI (MALME-3M melanoma) was > 100 µM and the TGI (MCF7 breast) was > 100 µM. For the same compound, the TGI (MDA-MB-231 breast) was > 100 µM, the TGI (MDA-MB-435) was > 100 µM and the TGI (MDA-N) was > 100 µM. For the same compound, the TGI (MOLT-4 leukemia) was > 100 µM, the TGI (NCI-H226 lung) was > 100 µM and the TGI (NCI-H23 lung) was > 100 µM. The TGI (NCI-H460 lung) was > 100 µM, the TGI (NCI-H522 lung) was > 100 µM and the TGI (NCI/ADR-RES ovarian) was > 100 µM. The TGI (OVCAR-3 ovarian) was > 100 µM, the TGI (OVCAR-5 ovarian) was > 100 µM and the TGI (OVCAR-8 ovarian) was > 100 µM. For the same compound, the TGI (PC-3 prostate) was > 100 µM, the TGI (RPMI-8226 leukemia) was > 100 µM and the TGI (RXF 393 renal) was 79.3 µM. For the same compound, the TGI (SF-268 CNS) was > 100 µM, the TGI (SF-295 CNS) was > 100 µM and the TGI (SF-539 CNS) was > 100 µM. For the same compound, the TGI (SK-MEL-2 melanoma) was > 100 µM, the TGI (SK-MEL-28 melanoma) was > 100 µM and the TGI (SK-MEL-5 melanoma) was > 100 µM. For the same compound, the TGI (SK-OV-3 ovarian) was > 100 µM, the TGI (SN12C renal) was > 100 µM and the TGI (SNB-19 CNS) was > 100 µM. For the same compound, the TGI (SNB-75 CNS) was > 100 µM, the TGI (SR leukemia) was > 100 µM and the TGI (SW-620 colon) was > 100 µM. For the same compound, the TGI (T-47D breast) was 89.7 µM, the TGI (TK-10 renal) was > 100 µM and the TGI (U251 CNS) was > 100 µM. The TGI (UACC-257 melanoma) was > 100 µM, the TGI (UACC-62 melanoma) was > 100 µM and the TGI (UO-31 renal) was > 100 µM.
